Source: the NIST ThermoML archive (doi:10.1021/je049895b)

Test: xn = mol fraction of the nth substance listed
Settings: 101.33 kPa, Liquid; for viscosity: Capillary tube (Ostwald / Ubbelohde) method

C1CCCC1 [cyclopentane] + CCOC(=O)OCC
Settings | mass density [kg/m3] | speed of sound [m/s] | viscosity [mPa·s]
293.15 K, x2 = 0 | 744.43 | 1232 | 0.438
293.15 K, x2 = 0.0491 | 757.21 | 1219 | 0.44
293.15 K, x2 = 0.0999 | 770.43 | 1209 | 0.445
293.15 K, x2 = 0.1898 | 793.45 | 1196 | 0.462
293.15 K, x2 = 0.2872 | 817.88 | 1186 | 0.486
293.15 K, x2 = 0.3894 | 842.77 | 1180 | 0.518
293.15 K, x2 = 0.5009 | 868.92 | 1178 | 0.559
293.15 K, x2 = 0.6023 | 891.92 | 1179 | 0.601
293.15 K, x2 = 0.7021 | 913.9 | 1181 | 0.646
293.15 K, x2 = 0.8053 | 935.69 | 1186 | 0.696
293.15 K, x2 = 0.9032 | 955.62 | 1191 | 0.748
293.15 K, x2 = 0.952 | 965.36 | 1194 | 0.778
298.15 K, x2 = 0 | 739.47 | 1206 | 0.415
298.15 K, x2 = 0.0491 | 752.18 | 1194 | 0.416
298.15 K, x2 = 0.0999 | 765.34 | 1184 | 0.421
298.15 K, x2 = 0.1898 | 788.24 | 1172 | 0.437
298.15 K, x2 = 0.2872 | 812.58 | 1163 | 0.459
298.15 K, x2 = 0.3894 | 837.37 | 1157 | 0.489
298.15 K, x2 = 0.5009 | 863.47 | 1156 | 0.527
298.15 K, x2 = 0.6023 | 886.43 | 1157 | 0.564
298.15 K, x2 = 0.7021 | 908.38 | 1160 | 0.606
298.15 K, x2 = 0.8053 | 930.14 | 1165 | 0.654
298.15 K, x2 = 0.9032 | 950.04 | 1170 | 0.699
298.15 K, x2 = 0.952 | 959.78 | 1174 | 0.726
303.15 K, x2 = 0 | 734.47 | 1180 | 0.394
303.15 K, x2 = 0.0491 | 747.11 | 1169 | 0.396
303.15 K, x2 = 0.0999 | 760.19 | 1159 | 0.399
303.15 K, x2 = 0.1898 | 782.99 | 1147 | 0.414
303.15 K, x2 = 0.2872 | 807.23 | 1139 | 0.435
303.15 K, x2 = 0.3894 | 831.95 | 1134 | 0.461
303.15 K, x2 = 0.5009 | 857.97 | 1133 | 0.496
303.15 K, x2 = 0.6023 | 880.91 | 1135 | 0.532
303.15 K, x2 = 0.7021 | 902.82 | 1138 | 0.57
303.15 K, x2 = 0.8053 | 924.56 | 1144 | 0.615
303.15 K, x2 = 0.9032 | 944.44 | 1150 | 0.655
303.15 K, x2 = 0.952 | 954.16 | 1153 | 0.68
308.15 K, x2 = 0 | 729.42 | 1154 | 0.374
308.15 K, x2 = 0.0491 | 741.99 | 1144 | 0.375
308.15 K, x2 = 0.0999 | 755 | 1134 | 0.379
308.15 K, x2 = 0.1898 | 777.7 | 1123 | 0.393
308.15 K, x2 = 0.2872 | 801.84 | 1115 | 0.412
308.15 K, x2 = 0.3894 | 826.49 | 1112 | 0.436
308.15 K, x2 = 0.5009 | 852.45 | 1111 | 0.47
308.15 K, x2 = 0.6023 | 875.35 | 1113 | 0.502
308.15 K, x2 = 0.7021 | 897.23 | 1117 | 0.537
308.15 K, x2 = 0.8053 | 918.94 | 1123 | 0.578
308.15 K, x2 = 0.9032 | 938.8 | 1129 | 0.616
308.15 K, x2 = 0.952 | 948.52 | 1133 | 0.638
313.15 K, x2 = 0 | 724.32 | 1129 | 0.355
313.15 K, x2 = 0.0491 | 736.82 | 1119 | 0.356
313.15 K, x2 = 0.0999 | 749.76 | 1110 | 0.36
313.15 K, x2 = 0.1898 | 772.35 | 1099 | 0.373
313.15 K, x2 = 0.2872 | 796.39 | 1092 | 0.391
313.15 K, x2 = 0.3894 | 820.95 | 1089 | 0.414
313.15 K, x2 = 0.5009 | 846.9 | 1089 | 0.444
313.15 K, x2 = 0.6023 | 869.75 | 1091 | 0.475
313.15 K, x2 = 0.7021 | 891.61 | 1096 | 0.508
313.15 K, x2 = 0.8053 | 913.29 | 1102 | 0.545
313.15 K, x2 = 0.9032 | 933.14 | 1109 | 0.58
313.15 K, x2 = 0.952 | 942.85 | 1112 | 0.6
